Measurements reported in PubChem BioAssay (NCI).
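Dose response: 5 concentrations. Exposure: 48 h. Format: 96-well plates. Endpoint: linear interpolation; highest concentration if not reached. At the TGI there is no net growth.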

Legend:
Experiment in all cases: NCI anticancer screen, dose series, 48 h
SR leukemia = tested on: SR leukemia
SN12C renal = tested on: SN12C renal
TK-10 renal = tested on: TK-10 renal
MALME-3M melanoma = tested on: MALME-3M melanoma
HCT-15 colon = tested on: HCT-15 colon
RPMI-8226 leukemia = tested on: RPMI-8226 leukemia
HT29 colon = tested on: HT29 colon
KM12 colon = tested on: KM12 colon
CAKI-1 renal = tested on: CAKI-1 renal
OVCAR-8 ovarian = tested on: OVCAR-8 ovarian
CCRF-CEM leukemia = tested on: CCRF-CEM leukemia
HL-60(TB) leukemia = tested on: HL-60(TB) leukemia
M14 melanoma = tested on: M14 melanoma
K-562 leukemia = tested on: K-562 leukemia
MDA-N = tested on: MDA-N
SNB-75 CNS = tested on: SNB-75 CNS
MCF7 breast = tested on: MCF7 breast
IGROV1 ovarian = tested on: IGROV1 ovarian
HCC-2998 colon = tested on: HCC-2998 colon
RXF 393 renal = tested on: RXF 393 renal
SK-MEL-5 melanoma = tested on: SK-MEL-5 melanoma
A549 NSCLC = tested on: A549 NSCLC
T-47D breast = tested on: T-47D breast
HOP-62 NSCLC = tested on: HOP-62 NSCLC
LOX IMVI melanoma = tested on: LOX IMVI melanoma
UACC-257 melanoma = tested on: UACC-257 melanoma
SF-268 CNS = tested on: SF-268 CNS
MDA-MB-231 breast = tested on: MDA-MB-231 breast
SF-295 CNS = tested on: SF-295 CNS
NCI-H23 lung = tested on: NCI-H23 lung
UACC-62 melanoma = tested on: UACC-62 melanoma
SK-OV-3 ovarian = tested on: SK-OV-3 ovarian
SK-MEL-28 melanoma = tested on: SK-MEL-28 melanoma
MOLT-4 leukemia = tested on: MOLT-4 leukemia
EKVX NSCLC = tested on: EKVX NSCLC
SW-620 colon = tested on: SW-620 colon
PC-3 prostate = tested on: PC-3 prostate
786-0 renal = tested on: 786-0 renal
DU-145 prostate = tested on: DU-145 prostate
COLO 205 colon = tested on: COLO 205 colon
U251 CNS = tested on: U251 CNS
SNB-19 CNS = tested on: SNB-19 CNS
MDA-MB-435 = tested on: MDA-MB-435
HCT-116 colon = tested on: HCT-116 colon
NCI-H226 lung = tested on: NCI-H226 lung
NCI-H460 lung = tested on: NCI-H460 lung
OVCAR-5 ovarian = tested on: OVCAR-5 ovarian
HOP-92 NSCLC = tested on: HOP-92 NSCLC
UO-31 renal = tested on: UO-31 renal
SK-MEL-2 melanoma = tested on: SK-MEL-2 melanoma
NCI-H522 lung = tested on: NCI-H522 lung
ACHN renal = tested on: ACHN renal
OVCAR-4 ovarian = tested on: OVCAR-4 ovarian
A498 renal = tested on: A498 renal
HS 578T breast = tested on: HS 578T breast
NCI/ADR-RES ovarian = tested on: NCI/ADR-RES ovarian
SF-539 CNS = tested on: SF-539 CNS
OVCAR-3 ovarian = tested on: OVCAR-3 ovarian

## CSc1nc(C)c(CCOC(C)=O)c(N=P(c2ccccc2)(c2ccccc2)c2ccccc2)n1
SR leukemia
  TGI: 7.83 µM
SN12C renal
  TGI: > 10 µM
TK-10 renal
  TGI: > 10 µM
MALME-3M melanoma
  TGI: > 10 µM
HCT-15 colon
  TGI: > 10 µM
RPMI-8226 leukemia
  TGI: > 10 µM
HT29 colon
  TGI: > 10 µM
KM12 colon
  TGI: > 10 µM
CAKI-1 renal
  TGI: > 10 µM
OVCAR-8 ovarian
  TGI: > 10 µM
CCRF-CEM leukemia
  TGI: > 10 µM
HL-60(TB) leukemia
  TGI: > 10 µM
M14 melanoma
  TGI: > 10 µM
K-562 leukemia
  TGI: > 10 µM
MDA-N
  TGI: > 10 µM
SNB-75 CNS
  TGI: > 10 µM
MCF7 breast
  TGI: > 10 µM
IGROV1 ovarian
  TGI: > 10 µM
HCC-2998 colon
  TGI: > 10 µM
RXF 393 renal
  TGI: > 10 µM
SK-MEL-5 melanoma
  TGI: > 10 µM
A549 NSCLC
  TGI: > 10 µM
T-47D breast
  TGI: > 10 µM
HOP-62 NSCLC
  TGI: > 10 µM
LOX IMVI melanoma
  TGI: > 10 µM
UACC-257 melanoma
  TGI: > 10 µM
SF-268 CNS
  TGI: > 10 µM
MDA-MB-231 breast
  TGI: > 10 µM
SF-295 CNS
  TGI: > 10 µM
NCI-H23 lung
  TGI: > 10 µM
UACC-62 melanoma
  TGI: > 10 µM
SK-OV-3 ovarian
  TGI: > 10 µM
SK-MEL-28 melanoma
  TGI: > 10 µM
MOLT-4 leukemia
  TGI: 6.43 µM
EKVX NSCLC
  TGI: > 10 µM
SW-620 colon
  TGI: > 10 µM
PC-3 prostate
  TGI: 9.37 µM
786-0 renal
  TGI: > 10 µM
DU-145 prostate
  TGI: > 10 µM

## C=CC1(O)CCCC=C1COCc1ccccc1 (stereo not drawn)
SR leukemia
  TGI: 57 µM
SN12C renal
  TGI: > 100 µM
TK-10 renal
  TGI: > 100 µM
MALME-3M melanoma
  TGI: > 100 µM
HCT-15 colon
  TGI: > 100 µM
COLO 205 colon
  TGI: > 100 µM
RPMI-8226 leukemia
  TGI: 68.3 µM
HT29 colon
  TGI: > 100 µM
KM12 colon
  TGI: > 100 µM
CAKI-1 renal
  TGI: > 100 µM
U251 CNS
  TGI: > 100 µM
SNB-19 CNS
  TGI: > 100 µM
MDA-MB-435
  TGI: > 100 µM
OVCAR-8 ovarian
  TGI: > 100 µM
CCRF-CEM leukemia
  TGI: > 100 µM
HCT-116 colon
  TGI: > 100 µM
HL-60(TB) leukemia
  TGI: 72.2 µM
M14 melanoma
  TGI: > 100 µM
K-562 leukemia
  TGI: > 100 µM
NCI-H226 lung
  TGI: > 100 µM
NCI-H460 lung
  TGI: > 100 µM
OVCAR-5 ovarian
  TGI: > 100 µM
MDA-N
  TGI: > 100 µM
HOP-92 NSCLC
  TGI: > 100 µM
SNB-75 CNS
  TGI: > 100 µM
MCF7 breast
  TGI: > 100 µM
IGROV1 ovarian
  TGI: 35.3 µM
HCC-2998 colon
  TGI: > 100 µM
UO-31 renal
  TGI: > 100 µM
SK-MEL-2 melanoma
  TGI: > 100 µM
RXF 393 renal
  TGI: > 100 µM
NCI-H522 lung
  TGI: 32.4 µM
ACHN renal
  TGI: > 100 µM
SK-MEL-5 melanoma
  TGI: > 100 µM
A549 NSCLC
  TGI: > 100 µM
T-47D breast
  TGI: > 100 µM
OVCAR-4 ovarian
  TGI: > 100 µM
HOP-62 NSCLC
  TGI: > 100 µM
LOX IMVI melanoma
  TGI: 40.7 µM
UACC-257 melanoma
  TGI: > 100 µM
SF-268 CNS
  TGI: > 100 µM
MDA-MB-231 breast
  TGI: > 100 µM
A498 renal
  TGI: > 100 µM
SF-295 CNS
  TGI: > 100 µM
NCI-H23 lung
  TGI: > 100 µM
HS 578T breast
  TGI: > 100 µM
UACC-62 melanoma
  TGI: > 100 µM
SK-OV-3 ovarian
  TGI: > 100 µM
NCI/ADR-RES ovarian
  TGI: > 100 µM
SK-MEL-28 melanoma
  TGI: > 100 µM
MOLT-4 leukemia
  TGI: 66.7 µM
EKVX NSCLC
  TGI: > 100 µM
PC-3 prostate
  TGI: > 100 µM
786-0 renal
  TGI: > 100 µM
DU-145 prostate
  TGI: > 100 µM

## c1csc(C(NC2=NCCO2)C2CC2)c1 (stereo not drawn)
SR leukemia
  TGI: > 100 µM
SN12C renal
  TGI: > 100 µM
HCT-15 colon
  TGI: > 100 µM
COLO 205 colon
  TGI: > 100 µM
RPMI-8226 leukemia
  TGI: > 100 µM
HT29 colon
  TGI: > 100 µM
CAKI-1 renal
  TGI: > 100 µM
U251 CNS
  TGI: > 100 µM
SNB-19 CNS
  TGI: > 100 µM
OVCAR-8 ovarian
  TGI: > 100 µM
HCT-116 colon
  TGI: > 100 µM
NCI-H226 lung
  TGI: > 100 µM
NCI-H460 lung
  TGI: > 100 µM
OVCAR-5 ovarian
  TGI: > 100 µM
MDA-N
  TGI: > 100 µM
HOP-92 NSCLC
  TGI: > 100 µM
SNB-75 CNS
  TGI: > 100 µM
MCF7 breast
  TGI: > 100 µM
IGROV1 ovarian
  TGI: > 100 µM
HCC-2998 colon
  TGI: > 100 µM
UO-31 renal
  TGI: > 100 µM
SK-MEL-2 melanoma
  TGI: > 100 µM
RXF 393 renal
  TGI: > 100 µM
NCI-H522 lung
  TGI: > 100 µM
ACHN renal
  TGI: > 100 µM
SK-MEL-5 melanoma
  TGI: > 100 µM
A549 NSCLC
  TGI: > 100 µM
T-47D breast
  TGI: > 100 µM
OVCAR-4 ovarian
  TGI: > 100 µM
HOP-62 NSCLC
  TGI: > 100 µM
LOX IMVI melanoma
  TGI: > 100 µM
MDA-MB-231 breast
  TGI: > 100 µM
A498 renal
  TGI: > 100 µM
SF-295 CNS
  TGI: > 100 µM
NCI-H23 lung
  TGI: > 100 µM
HS 578T breast
  TGI: > 100 µM
UACC-62 melanoma
  TGI: > 100 µM
SK-OV-3 ovarian
  TGI: > 100 µM
MOLT-4 leukemia
  TGI: > 100 µM
EKVX NSCLC
  TGI: > 100 µM
SW-620 colon
  TGI: > 100 µM
PC-3 prostate
  TGI: > 100 µM
SF-539 CNS
  TGI: > 100 µM

## COC(=O)C1(Cc2ccccc2)Cc2c(C)ccc(C)c2C1=O (stereo not drawn)
SR leukemia
  TGI: > 100 µM
SN12C renal
  TGI: > 100 µM
TK-10 renal
  TGI: > 100 µM
MALME-3M melanoma
  TGI: 50.3 µM
HCT-15 colon
  TGI: > 100 µM
COLO 205 colon
  TGI: 25.4 µM
RPMI-8226 leukemia
  TGI: 75.4 µM
HT29 colon
  TGI: 69.8 µM
KM12 colon
  TGI: 42.8 µM
U251 CNS
  TGI: > 100 µM
SNB-19 CNS
  TGI: > 100 µM
MDA-MB-435
  TGI: 43.4 µM
OVCAR-8 ovarian
  TGI: 52.1 µM
CCRF-CEM leukemia
  TGI: > 100 µM
HCT-116 colon
  TGI: > 100 µM
HL-60(TB) leukemia
  TGI: 54 µM
M14 melanoma
  TGI: 98.8 µM
K-562 leukemia
  TGI: > 100 µM
OVCAR-3 ovarian
  TGI: 85.1 µM
NCI-H226 lung
  TGI: 97.3 µM
NCI-H460 lung
  TGI: > 100 µM
OVCAR-5 ovarian
  TGI: > 100 µM
MDA-N
  TGI: > 100 µM
HOP-92 NSCLC
  TGI: 54.3 µM
SNB-75 CNS
  TGI: 61.3 µM
MCF7 breast
  TGI: 81.1 µM
IGROV1 ovarian
  TGI: > 100 µM
HCC-2998 colon
  TGI: 97.7 µM
UO-31 renal
  TGI: 38 µM
RXF 393 renal
  TGI: 83.1 µM
NCI-H522 lung
  TGI: 56.2 µM
ACHN renal
  TGI: > 100 µM
SK-MEL-5 melanoma
  TGI: 28.8 µM
A549 NSCLC
  TGI: 36.4 µM
T-47D breast
  TGI: > 100 µM
OVCAR-4 ovarian
  TGI: > 100 µM
HOP-62 NSCLC
  TGI: > 100 µM
LOX IMVI melanoma
  TGI: 34.6 µM
UACC-257 melanoma
  TGI: 64.9 µM
SF-268 CNS
  TGI: > 100 µM
MDA-MB-231 breast
  TGI: 38.4 µM
A498 renal
  TGI: > 100 µM
SF-295 CNS
  TGI: > 100 µM
NCI-H23 lung
  TGI: > 100 µM
HS 578T breast
  TGI: 62 µM
UACC-62 melanoma
  TGI: 54.8 µM
SK-OV-3 ovarian
  TGI: > 100 µM
NCI/ADR-RES ovarian
  TGI: > 100 µM
SK-MEL-28 melanoma
  TGI: > 100 µM
MOLT-4 leukemia
  TGI: 57.5 µM
EKVX NSCLC
  TGI: > 100 µM
SW-620 colon
  TGI: > 100 µM
PC-3 prostate
  TGI: 78.2 µM
SF-539 CNS
  TGI: > 100 µM
786-0 renal
  TGI: > 100 µM
DU-145 prostate
  TGI: > 100 µM
